Patent US20260274833A1 (NiKang Therapeutics, Inc., priority 2022, published 2026)

Each molecule was assayed against T1, CDK2 (Homo sapiens, UniProt P24941) (assay: Phospho-RB measurement in OVCAR3 cells (HTRF phospho-RB cellular kit)). Conditions: inhibition of RB phosphorylation at S807/811 (HTRF, TR-FRET ratio 665/620), 24 h compound treatment, 0.3 to 10,000 nM.
T1 construct: endogenous in cells; host or cells: OVCAR3 cells
Type: cell-based
Procedure: Biological Example 1: Phospho-RB Measurement in OVCAR3 Cells
The ability of compounds of Formula (I) to inhibit CDK2 was determined in OVCAR3 cells by measuring inhibition of phosphorylation of RB protein at S780 and S807/811. Phosphorylation of RB protein at S807/811 were measured using HTRF phospho-RB cellular kits (Cat #64RBS807PEG) from Cisbio.
On Day 1, OVCAR3 cells were seeded into 96-well tissue-culture treated plates at 20,000 cells/well in 200 μL and incubated overnight at 37° C. in CO2 atmosphere. On Day 2, the cells were treated with test compounds at concentrations from 0.3 to 10,000 nM using HP D300 digital dispenser. Twenty-four hours after compound treatment, cell culture media was removed by flicking the plate and tapping the plate against clean paper towel. Immediately 30 μL 1× lysis buffer was supplemented from the kit and the plate was incubated at room temperature on shaker for 30 min. After homogenization by pipetting up and down, 8 μL cell lysate from 96-well cell culture plate was transferred to 384-well small volume white detection plate. 2 μL premixed detection solution was added and the plate was covered with sealer. To prepare the detection solution, d2 conjugated-phospho-RB antibody and Eu-cryptate conjugated phosphor-RB antibody were diluted into detection buffer following manufacturer's instruction.
Detection plates were incubated for 4 h at room temperature and read on ClarioStar (BMG Labtech) in TR-FRET mode ([…]). The TR-FRET ratio (665 nM/620 nM) was plotted against the compound concentration and normalized to DMSO controls. Half maximal inhibition concentration (IC50) values are calculated with a four-parameter logistic fit using GraphPad Prism (version 8; La Jolla, CA).
O=S1(=O)CC2(CC(Nc3nccc(-c4sc(C56CC(C5)C6)nc4-c4cccc(NS(=O)(=O)N5CCc6ccc(Cl)cc65)c4F)n3)C2)C1 [Example 21, N-(3-(2-(bicyclo [1.1.1]pentan-1-yl)-5-(2-((2,2-dioxido-2-thiaspiro[3.3]heptan-6-yl)amino)-pyrimidin-4-yl)thiazol-4-yl)-2-fluorophenyl)-6-chloroindoline-1-sulfonamide] showed an IC50 of 55.7 nM. CN(C)c1ccc2c(c1)N(S(=O)(=O)Nc1cccc(-c3nc(C45CC(C4)C5)sc3-c3ccnc(NC4CC5(C4)CS(=O)(=O)C5)n3)c1F)CC2 [Example 22, N-(3-(2-(bicyclo [1.1.1]pentan-1-yl)-5-(2-((2,2-dioxido-2-thiaspiro [3.3]heptan-6-yl)amino)-pyrimidin-4-yl)thiazol-4-yl)-2-fluorophenyl)-6-(dimethylamino)-indoline-1-sulfonamide] was tested, and the IC50 was 477 nM. COc1cccc2c1CN(S(=O)(=O)Nc1cccc(-c3nc(C45CC(C4)C5)sc3-c3ccnc(NC4CC5(C4)CS(=O)(=O)C5)n3)c1F)C2 [Example 23, N-(3-(2-(bicyclo [1.1.1]pentan-1-yl)-5-(2-((2,2-dioxido-2-thiaspiro[3.3]heptan-6-yl)amino)-pyrimidin-4-yl)thiazol-4-yl)-2-fluorophenyl)-4-methoxyisoindoline-2-sulfonamide] gave an IC50 of 136 nM. O=S1(=O)CC2(CC(Nc3nccc(-c4sc(C56CC(C5)C6)nc4-c4cccc(NS(=O)(=O)N5Cc6cccc(OC(F)F)c6C5)c4F)n3)C2)C1 [Example 24, N-(3-(2~(bicyclo [1.1.1]pentan-1-yl)-5-(2-((2,2-dioxido-2-thiaspiro[3.3]heptan-6-yl)amino)-pyrimidin-4-yl)thiazol-4-yl)-2-fluorophenyl)-4-(difluoromethoxy)-isoindoline-2-sulfonamide] gave an IC50 of 102 nM. Molecule O=S1(=O)CC2(CC(Nc3nccc(-c4sc(C56CC(C5)C6)nc4-c4cccc(NS(=O)(=O)N5Cc6cccc(C(F)(F)F)c6C5)c4F)n3)C2)C1 [Example 25, N-(3-(2-(bicyclo [1.1.1]pentan-1-yl)-5-(2-((2,2-dioxido-2-thiaspiro[3.3]heptan-6-yl)amino)-pyrimidin-4-yl)thiazol-4-yl)-2-fluorophenyl)-4-(trifluoromethyl)-isoindoline-2-sulfonamide] has an IC50 of 75.1 nM. In the case of C#Cc1ccc2c(c1)N(S(=O)(=O)Nc1cccc(-c3nc(C45CC(C4)C5)sc3-c3ccnc(NC4CC5(C4)CS(=O)(=O)C5)n3)c1F)CC2 [Example 26, N-(3-(2-(bicyclo [1.1.1]pentan-1-yl)-5-(2-((2,2-dioxido-2-thiaspiro[3.3]heptan-6-yl)amino)-pyrimidin-4-yl)thiazol-4-yl)-2-fluorophenyl)-6-ethynylindoline-1-sulfonamide], the IC50 is reported as 160 nM. Work on O=S1(=O)CC2(CC(Nc3nccc(-c4sc(C56CC(C5)C6)nc4-c4cccc(NS(=O)(=O)N5CCc6ccc(C(F)F)cc65)c4F)n3)C2)C1 [Example 27, N-(3-(2-(bicyclo [1.1.1]pentan-1-yl)-5-(2-((2,2-dioxido-2-thiaspiro[3.3]heptan-6-yl)amino)-pyrimidin-4-yl)thiazol-4-yl)-2-fluorophenyl)-6-(difluoromethyl)-indoline-1-sulfonamide] yielded an IC50 of 161 nM. O=S1(=O)CC2(CC(Nc3nccc(-c4sc(C56CC(C5)C6)nc4-c4cccc(NS(=O)(=O)N5Cc6cccc(C(F)F)c6C5)c4F)n3)C2)C1 [Example 28, N-(3-(2-(bicyclo [1.1.1]pentan-1-yl)-5-(2-((2,2-dioxido-2-thiaspiro[3.3]heptan-6-yl)amino)-pyrimidin-4-yl)thiazol-4-yl)-2-fluorophenyl)-4-(difluoromethyl)-isoindoline-2-sulfonamide] was tested, and the IC50 was 71.9 nM. For O=S1(=O)CC2(CC(Nc3nccc(-c4sc(C56CC(C5)C6)nc4-c4cccc(NS(=O)(=O)N5CCc6ccc(F)cc65)c4F)n3)C2)C1 [Example 29, N-(3-(2-(bicyclo [1.1.1]pentan-1-yl)-5-(2-((2,2-dioxido-2-thiaspiro[3.3]heptan-6-yl)amino)-pyrimidin-4-yl)thiazol-4-yl)-2-fluorophenyl)-6-fluoroindoline-1-sulfonamide], the IC50 was 70.8 nM. CN1CC2CCC(C1)N2c1nc(-c2cccc(NS(=O)(=O)N3Cc4cccc(OC(F)F)c4C3)c2F)c(-c2ccnc(NC3CC4(C3)CS(=O)(=O)C4)n2)s1 [Example 30, 4-(difluoromethoxy)-N-(3-(5-(2-((2,2-dioxido-2-thiaspiro [3.3]heptan-6-yl)amino)pyrimidin-4-yl)-2-(3-methyl-3,8-diazabicyclo [3.2.1]-octan-8-yl)thiazol-4-yl)-2-fluorophenyl)-isoindoline-2-sulfonamide] was tested, and the IC50 was 28.5 nM. COc1cccc2c1CN(S(=O)(=O)Nc1cccc(-c3nc(N4C5CCC4CN(C)C5)sc3-c3ccnc(NC4CC5(C4)CS(=O)(=O)C5)n3)c1F)C2 [Example 31, N-(3-(5-(2-((2,2-dioxido-2-thiaspiro-[3.3]-heptan-6-yl)amino)pyrimidin-4-yl)-2-(3-methyl-3,8-diazabicyclo [3.2.1]-octan-8-yl)-thiazol-4-yl)-2-fluoro-phenyl)-4-methoxy-isoindoline-2-sulfonamide] was tested, and the IC50 was 30.2 nM. In the case of CN1CC2CCC(C1)N2c1nc(-c2cccc(NS(=O)(=O)N3Cc4cccc(C(F)(F)F)c4C3)c2F)c(-c2ccnc(NC3CC4(C3)CS(=O)(=O)C4)n2)s1 [Example 32, N-(3-(5-(2-((2,2-dioxido-2-thiaspiro-[3.3]-heptan-6-yl)amino)pyrimidin-4-yl)-2-(3-methyl-3,8-diazabicyclo[3.2.1]-octan-8-yl)-thiazol-4-yl)-2-fluoro-phenyl)-4-(trifluoro-methyl)isoindoline-2-sulfonamide], the IC50 is reported as 23.1 nM. O=S1(=O)CC2(CC(Nc3nccc(-c4sc(N5C6CCC5CN(CC(F)(F)F)C6)nc4-c4cccc(NS(=O)(=O)N5Cc6cccc(OC(F)F)c6C5)c4F)n3)C2)C1 [Example 33, 4-(difluoromethoxy)-N-(3-(5-(2-((2,2-dioxido-2-thiaspiro [3.3]heptan-6-yl)amino)pyrimidin-4-yl)-2-(3-(2,2,2-trifluoroethyl)-3,8-diazabicyclo-[3.2.1]octan-8-yl)thiazol-4-yl)-2-fluorophenyl) isoindoline-2-sulfonamide] gave an IC50 of 153 nM. O=S1(=O)CC2(CC(Nc3nccc(-c4sc(C56CC(C5)C6)nc4-c4cccc(NS(=O)(=O)N5CCc6cc(F)c(F)cc65)c4F)n3)C2)C1 [Example 34, N-(3-(2-(bicyclo [1.1.1]pentan-1-yl)-5-(2-((2,2-dioxido-2-thiaspiro[3.3]heptan-6-yl)amino)-pyrimidin-4-yl)thiazol-4-yl)-2-fluorophenyl)-5,6-difluoroindoline-1-sulfonamide] gave an IC50 of 116 nM. In the case of O=S1(=O)CC2(CC(Nc3nccc(-c4sc(C56CC(C5)C6)nc4-c4cccc(NS(=O)(=O)N5CCc6cc(C(F)(F)F)ccc65)c4F)n3)C2)C1 [Example 35, N-(3-(2-(bicyclo [1.1.1]pentan-1-yl)-5-(2-((2,2-dioxido-2-thiaspiro[3.3]heptan-6-yl)amino)-pyrimidin-4-yl)thiazol-4-yl)-2-fluorophenyl)-5-(trifluoromethyl)-indoline-1-sulfonamide], the IC50 is reported as 1590 nM. Molecule O=S1(=O)CC2(CC(Nc3nccc(-c4sc(C56CC(C5)C6)nc4-c4cccc(NS(=O)(=O)N5CCc6ccc(OC(F)(F)F)cc65)c4F)n3)C2)C1 [Example 36, N-(3-(2-(bicyclo [1.1.1]pentan-1-yl)-5-(2-((2,2-dioxido-2-thiaspiro [3.3]heptan-6-yl)amino)-pyrimidin-4-yl)thiazol-4-yl)-2-fluorophenyl)-6-(trifluoromethoxy) indoline-1-sulfonamide] has an IC50 of 195 nM. O=S1(=O)CC2(CC(Nc3nccc(-c4sc(C56CC(C5)C6)nc4-c4cccc(NS(=O)(=O)N5CCc6c(F)cc(F)cc65)c4F)n3)C2)C1 [Example 37, N-(3-(2-(bicyclo [1.1.1]pentan-1-yl)-5-(2-((2,2-dioxido-2-thiaspiro[3.3]heptan-6-yl)amino)-pyrimidin-4-yl)thiazol-4-yl)-2-fluorophenyl)-4,6-difluoroindoline-1-sulfonamide] was tested, and the IC50 was 74.5 nM. O=S1(=O)CC2(CC(Nc3nccc(-c4sc(N5C6CCC5CN(CC(F)(F)F)C6)nc4-c4cccc(NS(=O)(=O)N5CCc6ccccc65)c4F)n3)C2)C1 [Example 38, N-(3-(5-(2-((2,2-dioxido-2-thiaspiro-[3.3]-heptan-6-yl)amino)pyrimidin-4-yl)-2-(3-(2,2,2-trifluoroethyl)-3,8-diazabicyclo[3.2.1]-octan-8-yl)thiazol-4-yl)-2-fluorophenyl)-indoline-1-sulfonamide] gave an IC50 of 263 nM. O=S1(=O)CC2(CC(Nc3nccc(-c4sc(N5C6CCC5CN(CC(F)(F)F)C6)nc4-c4cccc(NS(=O)(=O)N5CCc6ccc(C(F)(F)F)cc65)c4F)n3)C2)C1 [Example 39, N-(3-(5-(2-((2,2-dioxido-2-thiaspiro-[3.3]-heptan-6-yl)amino)pyrimidin-4-yl)-2-(3-(2,2,2-trifluoroethyl)-3,8-diazabicyclo[3.2.1]-octan-8-yl)thiazol-4-yl)-2-fluorophenyl)-6-(trifluoromethyl)-indoline-1-sulfonamide] was tested, and the IC50 was 752 nM.
